Calls of active or inactive are those of the source. The calls are words filed in the database; no cut-off is given here.
Columns and labels:
Assay type in all cases: cell-based
[1] = biological target: Nucleolar RNA helicase 2 (Mus musculus) (UniProt Q9JIK5); assay: Inhibition of Ddx21 in mouse C2C12 cells assessed as reduction in phospho-sites occupancy at 4 uM after 5 hrs by SILAC based LC-MS/MS analysis relative to control
[2] = biological target: Autophagy-related protein 9A (Mus musculus) (UniProt Q68FE2); assay: Inhibition of Atg9a in mouse C2C12 cells assessed as reduction in phospho-sites occupancy at 4 uM after 5 hrs by SILAC based LC-MS/MS analysis relative to control
[3] = biological target: tRNA (guanine(26)-N(2))-dimethyltransferase (Mus musculus) (UniProt Q3TX08); assay: Inhibition of Trmt1 in mouse C2C12 cells assessed as reduction in phospho-sites occupancy at 4 uM after 5 hrs by SILAC based LC-MS/MS analysis relative to control
[4] = biological target: Centrosomal protein of 170 kDa (Mus musculus) (UniProt Q6A065); assay: Inhibition of Cep170 in mouse C2C12 cells assessed as reduction in phospho-sites occupancy at 4 uM after 5 hrs by SILAC based LC-MS/MS analysis relative to control
[5] = biological target: Kinectin (Mus musculus) (UniProt Q61595); assay: Inhibition of Ktn1 in mouse C2C12 cells assessed as reduction in phospho-sites occupancy at 4 uM after 5 hrs by SILAC based LC-MS/MS analysis relative to control
[6] = biological target: DNA replication licensing factor MCM2 (Mus musculus) (UniProt P97310); assay: Inhibition of Mcm2 in mouse C2C12 cells assessed as reduction in phospho-sites occupancy at 4 uM after 5 hrs by SILAC based LC-MS/MS analysis relative to control
[7] = biological target: EH domain-containing protein 2 (Mus musculus) (UniProt Q8BH64); assay: Inhibition of Ehd2 in mouse C2C12 cells assessed as reduction in phospho-sites occupancy at 4 uM after 5 hrs by SILAC based LC-MS/MS analysis relative to control
[8] = biological target: Serine/arginine repetitive matrix protein 1 (Mus musculus) (UniProt Q52KI8); assay: Inhibition of Srrm1 in mouse C2C12 cells assessed as reduction in phospho-sites occupancy at 4 uM after 5 hrs by SILAC based LC-MS/MS analysis relative to control
[9] = biological target: Rho GTPase-activating protein 35 (Mus musculus) (UniProt Q91YM2); assay: Inhibition of Arhgap35 in mouse C2C12 cells assessed as reduction in phospho-sites occupancy at 4 uM after 5 hrs by SILAC based LC-MS/MS analysis relative to control
[10] = biological target: Transcriptional regulator ATRX (Mus musculus) (UniProt Q61687); assay: Inhibition of ATRX in mouse C2C12 cells assessed as reduction in phospho-sites occupancy at 4 uM after 5 hrs by SILAC based LC-MS/MS analysis relative to control
[11] = biological target: Protein transport protein Sec31A (Mus musculus) (UniProt Q3UPL0); assay: Inhibition of Sec31a in mouse C2C12 cells assessed as reduction in phospho-sites occupancy at 4 uM after 5 hrs by SILAC based LC-MS/MS analysis relative to control
[12] = biological target: Fermitin family homolog 2 (Mus musculus) (UniProt Q8CIB5); assay: Inhibition of Fermt2 in mouse C2C12 cells assessed as reduction in phospho-sites occupancy at 4 uM after 5 hrs by SILAC based LC-MS/MS analysis relative to control
[13] = biological target: Desmoyokin (Mus musculus) (UniProt Q61484); assay: Inhibition of AHNAK in mouse C2C12 cells assessed as reduction in phospho-sites occupancy at 4 uM after 5 hrs by SILAC based LC-MS/MS analysis relative to control
[14] = biological target: Dihydropyrimidinase-related protein 3 (Mus musculus) (UniProt Q62188); assay: Inhibition of Dihydropyrimidinase-related protein 3 in mouse C2C12 cells assessed as reduction in phospho-sites occupancy at 4 uM after 5 hrs by SILAC based LC-MS/MS analysis relative to control
[15] = biological target: La-related protein 1 (Mus musculus) (UniProt Q6ZQ58); assay: Inhibition of Larp1 in mouse C2C12 cells assessed as reduction in phospho-sites occupancy at 4 uM after 5 hrs by SILAC based LC-MS/MS analysis relative to control
[16] = biological target: Pleckstrin homology-like domain family B member 1 (Mus musculus) (UniProt Q6PDH0); assay: Inhibition of Phldb1 in mouse C2C12 cells assessed as reduction in phospho-sites occupancy at 4 uM after 5 hrs by SILAC based LC-MS/MS analysis relative to control
[17] = biological target: 1-phosphatidylinositol 4,5-bisphosphate phosphodiesterase delta-3 (Mus musculus) (UniProt Q8K2J0); assay: Inhibition of Plcd3 in mouse C2C12 cells assessed as reduction in phospho-sites occupancy at 4 uM after 5 hrs by SILAC based LC-MS/MS analysis relative to control
[18] = biological target: Lamina-associated polypeptide 2, isoforms beta/delta/epsilon/gamma (Mus musculus) (UniProt Q61029); assay: Inhibition of LAP2B epsilon in mouse C2C12 cells assessed as reduction in phospho-sites occupancy at 4 uM after 5 hrs by SILAC based LC-MS/MS analysis relative to control
[19] = biological target: Cyclin-dependent kinase 4 (Mus musculus) (UniProt P30285); assay: Inhibition of Cdk4 in mouse C2C12 cells assessed as reduction in phospho-sites occupancy at 4 uM after 5 hrs by SILAC based LC-MS/MS analysis relative to control
[20] = biological target: WASH complex subunit 2 (Mus musculus) (UniProt Q6PGL7); assay: Inhibition of Washc2 in mouse C2C12 cells assessed as reduction in phospho-sites occupancy at 4 uM after 5 hrs by SILAC based LC-MS/MS analysis relative to control
[21] = biological target: E3 ubiquitin-protein ligase NEDD4 (Mus musculus) (UniProt P46935); assay: Inhibition of Nedd4 in mouse C2C12 cells assessed as reduction in phospho-sites occupancy at 4 uM after 5 hrs by SILAC based LC-MS/MS analysis relative to control
[22] = biological target: T1, Casein kinase 2 (Mus musculus) (UniProt Q60737+P67871+O54833+Q8CH19); assay: Inhibition of CK2 in mouse C2C12 cells assessed as reduction in Akt phosphorylation at S129 residues at 1 to 4 uM by Western blot analysis; conditions: dose 1-4 µM
[23] = biological target: T1, Casein kinase 2 (Mus musculus); assay: Inhibition of CK2 in mouse C2C12 cells assessed as reduction in CDC37 phosphorylation at S13 residues at 1 to 4 uM by Western blot analysis; conditions: dose 1-4 µM
[24] = biological target: T1, Casein kinase 2 (Mus musculus); assay: Inhibition of CK2 in mouse C2C12 cells assessed as reduction in CK2 substrates phosphorylation at 1 to 4 uM by Western blot analysis; conditions: dose 1-4 µM

For `O=C(O)c1ccc2c(c1)nc(Nc1cccc(Cl)c1)c1ccncc12`, the fold change (FC) [1] was 1.85, the fold change (FC) [2] was 1.5 and the fold change (FC) [3] was 1.54. It also gave a fold change (FC) [4] of 1.56, a fold change (FC) [5] of 1.54 and a fold change (FC) [6] of 1.83. It also gave a fold change (FC) [7] of 1.65, a fold change (FC) [8] of 1.7 and a fold change (FC) [9] of 1.95. The fold change (FC) [10] was 2.22, the fold change (FC) [11] was 2.28 and the fold change (FC) [12] was 2.53. The fold change (FC) [13] was 1.54, the fold change (FC) [14] was 2.57 and the fold change (FC) [15] was 1.84. For the same compound, the fold change (FC) [16] was 2.12, the fold change (FC) [17] was 2.53 and the fold change (FC) [18] was 1.82. The fold change (FC) [19] was 2.6, the fold change (FC) [20] was 3.41 and the fold change (FC) [21] was 3.66. The inhibition [22] was “Active”, the inhibition [23] was “Active” and the inhibition [24] was “Active”.

From ChEMBL document CHEMBL4813950, “Comparing the efficacy and selectivity of Ck2 inhibitors. A phosphoproteomics approach” (Eur J Med Chem, 2021)
